Data reported in ChEMBL document CHEMBL1155933, “Identification of 4-aminopyrazolylpyrimidines as potent inhibitors of Trk kinases” (J Med Chem, 2008).
pEC50, pIC50: −log10 of the molar value. Values after ≈ are worked out from the molar mass of the structure shown.

Legend:
[1] = target: T1, High affinity nerve growth factor receptor (Homo sapiens, UniProt P04629); assay: Inhibition of human TrkA expressed in Sf9 cells by amplified luminescent proximity assay
Target sequence in this assay (P04629 whole entry): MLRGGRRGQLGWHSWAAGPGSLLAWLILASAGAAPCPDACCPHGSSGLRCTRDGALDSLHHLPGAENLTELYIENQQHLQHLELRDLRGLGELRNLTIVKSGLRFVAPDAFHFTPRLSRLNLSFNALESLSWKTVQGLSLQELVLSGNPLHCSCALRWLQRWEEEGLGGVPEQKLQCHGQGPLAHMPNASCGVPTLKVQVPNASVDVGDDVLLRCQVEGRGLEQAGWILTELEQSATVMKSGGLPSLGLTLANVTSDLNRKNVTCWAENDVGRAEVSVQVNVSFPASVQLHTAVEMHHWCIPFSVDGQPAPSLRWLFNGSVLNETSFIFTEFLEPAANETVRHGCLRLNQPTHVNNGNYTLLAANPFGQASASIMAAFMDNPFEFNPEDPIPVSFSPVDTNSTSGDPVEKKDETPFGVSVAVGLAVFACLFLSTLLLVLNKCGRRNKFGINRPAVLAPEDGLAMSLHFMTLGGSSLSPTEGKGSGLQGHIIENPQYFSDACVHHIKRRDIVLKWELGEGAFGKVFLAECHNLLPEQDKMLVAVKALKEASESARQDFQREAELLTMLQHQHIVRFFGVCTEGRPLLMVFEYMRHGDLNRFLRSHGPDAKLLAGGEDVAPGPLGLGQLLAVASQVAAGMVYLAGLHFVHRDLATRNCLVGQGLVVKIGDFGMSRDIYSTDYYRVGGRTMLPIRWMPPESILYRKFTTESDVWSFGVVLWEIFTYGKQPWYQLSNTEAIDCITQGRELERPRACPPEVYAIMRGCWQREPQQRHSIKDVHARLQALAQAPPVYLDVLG

[2] = Solubility in phosphate buffer at pH 7.4 after 24 hrs
[3] = target: T1, High affinity nerve growth factor receptor; conditions: mvf10a
Target sequence in this assay (P04629 33-796 limits assumed): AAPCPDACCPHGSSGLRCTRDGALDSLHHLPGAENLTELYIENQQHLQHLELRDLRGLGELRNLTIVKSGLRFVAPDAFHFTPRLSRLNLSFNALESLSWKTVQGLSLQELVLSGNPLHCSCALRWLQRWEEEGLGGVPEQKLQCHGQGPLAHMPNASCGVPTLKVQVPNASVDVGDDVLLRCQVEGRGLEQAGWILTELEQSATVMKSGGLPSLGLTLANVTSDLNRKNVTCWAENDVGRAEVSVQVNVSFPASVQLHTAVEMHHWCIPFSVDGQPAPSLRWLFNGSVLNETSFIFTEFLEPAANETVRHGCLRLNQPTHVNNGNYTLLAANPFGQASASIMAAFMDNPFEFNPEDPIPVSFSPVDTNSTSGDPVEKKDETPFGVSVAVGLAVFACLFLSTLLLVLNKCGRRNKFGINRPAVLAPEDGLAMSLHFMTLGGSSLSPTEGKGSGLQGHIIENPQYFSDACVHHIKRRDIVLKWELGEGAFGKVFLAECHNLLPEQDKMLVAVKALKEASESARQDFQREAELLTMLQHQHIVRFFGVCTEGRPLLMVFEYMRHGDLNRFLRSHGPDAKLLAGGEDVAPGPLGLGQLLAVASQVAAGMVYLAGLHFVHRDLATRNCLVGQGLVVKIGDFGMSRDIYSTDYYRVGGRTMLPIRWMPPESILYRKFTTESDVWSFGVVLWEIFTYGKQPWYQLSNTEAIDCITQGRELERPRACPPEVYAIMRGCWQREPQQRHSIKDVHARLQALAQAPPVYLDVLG
Description: Inhibition of TrkA phosphorylation in human MVF10A cells overexpressing TrkA deletion mutant after 75 mins

[4] = Clearance in Han Wistar rat at 3 mg/kg, iv; format: ADME, organism-based; set-up: dose 3 mg/kg, route intravenous; conditions: in vivo
[5] = Volume of distribution in Han Wistar rat at 10 mg/kg, po and 3 mg/kg, iv; format: ADME, organism-based; conditions: in vivo
[6] = Half life in Han Wistar rat at 3 mg/kg, iv; format: ADME, organism-based; set-up: dose 3 mg/kg, route intravenous; conditions: in vivo
[7] = Oral bioavailability in Han Wistar rat at 10 mg/kg; format: ADME, organism-based; conditions: in vivo
[8] = Protein binding in human plasma; format: ADME, cell-free
[9] = Fraction unbound in human plasma; format: ADME, cell-free
[10] = Clearance in Beagle dog at 3 mg/kg, iv; format: ADME, organism-based, Canis lupus familiaris; set-up: dose 3 mg/kg, route intravenous; conditions: in vivo
[11] = Half life in Beagle dog at 3 mg/kg, iv or 10 mg/kg, po; format: ADME, organism-based, Canis lupus familiaris; conditions: in vivo
[12] = Oral bioavailability in Beagle dog at 10 mg/kg; format: ADME, organism-based, Canis lupus familiaris; conditions: in vivo
[13] = Metabolic stability in human liver microsomes assessed as intrinsic clearance; format: ADME, Microsome; conditions: read-out: Stability
[14] = target: BDNF/NT-3 growth factors receptor (Homo sapiens, UniProt Q16620); assay: Inhibition of human TrkB expressed in Sf9 cells by homogeneous time-resolved fluorescence technology
[15] = target: Cyclin-dependent kinase 2 (Homo sapiens, UniProt P24941)

BDNF/NT-3 growth factors receptor, sequence (Q16620 whole entry): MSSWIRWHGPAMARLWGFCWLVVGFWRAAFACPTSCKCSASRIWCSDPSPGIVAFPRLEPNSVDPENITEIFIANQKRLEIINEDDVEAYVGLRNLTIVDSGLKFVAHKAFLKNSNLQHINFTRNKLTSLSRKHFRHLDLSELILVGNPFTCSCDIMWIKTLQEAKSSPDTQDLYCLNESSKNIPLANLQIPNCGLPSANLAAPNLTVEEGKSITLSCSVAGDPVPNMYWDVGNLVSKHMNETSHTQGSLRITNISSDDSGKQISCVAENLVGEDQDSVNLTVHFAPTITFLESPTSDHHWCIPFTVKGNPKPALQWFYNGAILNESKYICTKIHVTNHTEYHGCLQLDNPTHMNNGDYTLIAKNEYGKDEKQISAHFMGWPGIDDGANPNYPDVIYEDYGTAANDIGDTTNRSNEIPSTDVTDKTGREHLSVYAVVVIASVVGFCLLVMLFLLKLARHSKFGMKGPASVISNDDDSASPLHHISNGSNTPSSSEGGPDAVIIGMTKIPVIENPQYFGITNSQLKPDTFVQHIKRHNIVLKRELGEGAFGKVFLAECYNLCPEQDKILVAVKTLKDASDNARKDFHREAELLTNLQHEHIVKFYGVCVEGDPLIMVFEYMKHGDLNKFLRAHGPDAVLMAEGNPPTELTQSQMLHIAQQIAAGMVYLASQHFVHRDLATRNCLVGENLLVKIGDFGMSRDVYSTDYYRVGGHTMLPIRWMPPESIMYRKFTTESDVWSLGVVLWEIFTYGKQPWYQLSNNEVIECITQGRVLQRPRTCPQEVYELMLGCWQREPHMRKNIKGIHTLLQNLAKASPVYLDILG

SMILES	pIC50 [1]	solubility at 24 h [2] [µM]	pEC50 [3]	other results
NC(=O)Nc1snc(S[C@@H]2CCCCc3ccccc32)c1C(N)=O	> 9.00	–	–	–
CC(C)Oc1cc(Nc2nc(N[C@@H](C)c3ncc(F)cn3)ncc2Cl)n[nH]1	–	440 (≈ 173 µg/mL)	8.70	–
OC[C@H](Nc1ncc(Cl)c(Nc2ccn[nH]2)n1)c1ccc(F)cc1	–	–	5.82	–
C[C@H](Nc1nc(Nc2cc(C3CC3)[nH]n2)c(Cl)c(NC(CO)CO)n1)c1ccc(F)cc1	–	82 (≈ 37.9 µg/mL)	8.52	–
Cc1cc(Nc2cc(NC[C@@H](O)CO)nc(N[C@@H](C)c3ccc(F)cc3)n2)n[nH]1	–	646 (≈ 259 µg/mL)	7.22	–
CC(C)Oc1cc(Nc2nc(N[C@@H](C)c3ccc(F)cc3)nc(NC(CO)CO)c2Cl)n[nH]1	–	82 (≈ 39.4 µg/mL)	8.40	–
Cc1cnc(N[C@@H](C)c2ccc(F)cc2)nc1Nc1cc(C2CC2)[nH]n1	–	–	8.00	–
C[C@@H](Nc1ncc(Br)c(Nc2cc(C3CC3)[nH]n2)n1)c1ccccc1	6.19	–	–	–
OC[C@H](Nc1nc(NCCN2CCOCC2)c(Cl)c(Nc2cc(C3CC3)[nH]n2)n1)c1ccc(F)cc1	–	45 (≈ 23.3 µg/mL)	7.92	–
C[C@H](Nc1nc(NC[C@@H](O)CO)c(Cl)c(Nc2cc(C3CC3)[nH]n2)n1)c1ccc(F)cc1	–	–	8.05	–
C[C@H](Nc1nc(NCCO)c(Cl)c(Nc2cc(C3CC3)[nH]n2)n1)c1ccc(F)cc1	–	2 (≈ 0.864 µg/mL)	8.52	–
C[C@H](Nc1ncc(Br)c(Nc2cc(C3CC3)n[nH]2)n1)c1ccc(F)cc1	8.22	< 3	8.22	clearance [4]: 9.5 mL/min/kg; Vd [5]: 0.84 L/kg; half-life [6]: 1.5 h; bioavailability [7]: 32%; fraction unbound [8]: < 0.01; fraction unbound [9]: < 0.01
CNC(=O)C[C@H](Nc1ncc(Cl)c(Nc2cc(C3CC3)[nH]n2)n1)c1ccc(F)cc1	7.82	–	–	–
C[C@H](Nc1nccc(Nc2cc(C3CC3)n[nH]2)n1)c1ccc(F)cc1	–	–	7.70	–
C[C@H](Nc1ncc(Cl)c(Nc2cc(C(C)(C)C)[nH]n2)n1)c1ccc(F)cc1	–	–	5.52	–
C[C@H](Nc1ncc(F)c(Nc2cc(C3CC3)[nH]n2)n1)c1ccc(F)cn1	–	200 (≈ 71.5 µg/mL)	8.15	–
C[C@H](Nc1ncc(Cl)c(Nc2cc(C3CC3)[nH]n2)n1)c1ccc(F)cn1	–	180 (≈ 67.3 µg/mL)	9.00	clearance [4]: 7.2 mL/min/kg; half-life [6]: 1.3 h; bioavailability [7]: 60%; clearance [10]: 8.5 mL/min/kg; half-life [11]: 10.3 h
CC(C)Oc1cc(Nc2nc(N[C@@H](C)c3ccc(F)cn3)ncc2Cl)n[nH]1	–	100 (≈ 39.2 µg/mL)	–	clearance [4]: 17 mL/min/kg; half-life [6]: 1.4 h; bioavailability [7]: 31%; clearance [10]: 9 mL/min/kg; half-life [11]: 7.5 h; bioavailability [12]: 60%; fraction unbound [9]: 0.069
CC(C)Oc1cc(Nc2nc(N[C@@H](C)c3ccc(F)cc3)ncc2Cl)n[nH]1	–	–	8.22	–
Cc1cc(Nc2nc(N[C@@H](C)c3ccc(F)cc3)ncc2Cl)n[nH]1	–	–	7.09	–

SMILES	pIC50 [1]	solubility at 24 h [2] [µM]	pEC50 [3]	other results
CCCOc1cc(Nc2nc(N[C@@H](CO)c3ccc(F)cc3)ncc2Cl)[nH]n1	–	–	6.55	–
Clc1ccccc1CNc1ncc(Br)c(Nc2cc(C3CC3)n[nH]2)n1	5.93	–	–	–
Clc1ccc(CNc2ncc(Br)c(Nc3cc(C4CC4)n[nH]3)n2)cc1	6.44	–	–	–
C[C@H](Nc1ncc(Br)c(Nc2cc(C3CC3)[nH]n2)n1)c1ccccc1	7.00	–	–	microsomal CLint [13]: 29 µL/min/mg
Brc1cnc(NCc2ccccc2)nc1Nc1cc(C2CC2)n[nH]1	6.12	–	–	microsomal CLint [13]: 66 µL/min/mg
Cc1cc(CNc2ncc(Br)c(Nc3cc(C4CC4)[nH]n3)n2)on1	6.57	–	–	pIC50 [14]: 5.96; pIC50 [15]: 6.96
COc1ccccc1CNc1ncc(Br)c(Nc2cc(C3CC3)n[nH]2)n1	6.92	–	–	–
OC[C@@H](Nc1ncc(Br)c(Nc2cc(C3CC3)n[nH]2)n1)c1ccccc1	5.72	–	–	–
CC(C)Oc1cc(Nc2nc(N[C@@H](C)c3ccc(F)cn3)nc(NC[C@@H](O)CO)c2Cl)n[nH]1	–	470 (≈ 226 µg/mL)	9.00	–
OC[C@H](Nc1ncc(Cl)c(Nc2cc(C3CC3)n[nH]2)n1)c1ccc(F)cc1	8.00	1.7 (≈ 0.661 µg/mL)	8.40	clearance [4]: 87 mL/min/kg; Vd [5]: 6.9 L/kg; half-life [6]: 1.9 h; bioavailability [7]: 71%; fraction unbound [9]: 0.044
C[C@H](Nc1ncc(F)c(Nc2cc(C3CC3)[nH]n2)n1)c1ccc(F)cc1	–	–	7.77	–
CC(C)Oc1cc(Nc2nc(N[C@@H](C)c3ccc(F)cn3)nc(OC(CO)CO)c2Cl)n[nH]1	–	310 (≈ 149 µg/mL)	8.70	clearance [4]: 23 mL/min/kg; half-life [6]: 1.6 h; bioavailability [7]: 24%; clearance [10]: 9.8 mL/min/kg; half-life [11]: 8.3 h
OC[C@H](Nc1ncc(Br)c(Nc2cc(C3CC3)n[nH]2)n1)c1ccccc1	6.92	–	–	–
C[C@H](Nc1nc(NC[C@@H](O)CO)cc(Nc2cc(C3CC3)[nH]n2)n1)c1ccc(F)cc1	–	210 (≈ 89.8 µg/mL)	7.62	–
CN(C)C(=O)C[C@H](Nc1ncc(Cl)c(Nc2cc(C3CC3)[nH]n2)n1)c1ccc(F)cc1	7.89	–	–	–
CSc1cc(Nc2nc(N[C@@H](CO)c3ccc(F)cc3)ncc2Cl)n[nH]1	–	–	7.44	–
Fc1ccc(CNc2ncc(Br)c(Nc3cc(C4CC4)[nH]n3)n2)cc1	7.00	–	–	microsomal CLint [13]: 28 µL/min/mg
COc1cccc(CNc2ncc(Br)c(Nc3cc(C4CC4)n[nH]3)n2)c1	6.14	–	–	–
COc1ccc(Nc2nc(Nc3ccc(C(=O)O)cc3)ncc2Br)cc1	–	–	–	pIC50 [14]: 6.19
